This note sets out measurements from patent US11203757B2, “Use of Rad18 inhibitors in the treatment of tumors” (Centre National De La Recherche Scientifique, priority 2014, dated 2021).

Format in all cases: cell-based
The test system of data set [1] is U87-MG glioblastoma cells. Put plainly: CellTiter-Glo cell viability of U87-MG cells treated with P2207. The conditions noted are these: indicated doses of P2207, 48 h post-treatment, FIG. 7. The procedure: FIG. 7. […] Survival curves of U87-MG glioblastoma cells treated with the indicated doses of the USP7 inhibitor P2207 (Sigma-Aldrich), or DMSO as a control. Means and standard deviations are shown (n=3). Cell viability is expressed as percent (%) of viability compared to the control (DMSO).
Cells were plated at 1.0×10^4 cells/well in 12-well plates and exposed to the indicated amount of P2207 inhibitor (Sigma) or DMSO as control. 48 h post-treatment, cell viability was determined using the CellTiter-Glo luminescent cell viability assay (Promega).

Data set [2] concerns Gb4 glioblastoma cancer stem cells. Nature of the data set: Proliferation of gliospheres after Rad18 siRNA treatment. The conditions noted are these: 72 hours post-treatment, absence of external damage, versus control siRNA (siLuc). The procedure: FIG. 6. Rad18 downregulation affects the proliferation of glioblastoma cancer stem cells in the absence of external damage. (A) Western blot of Gb4 glioblastoma cancer stem cells extracts treated with control siRNA (siLuc, lane 1), or a Rad18-specific siRNA (siRad18, lane 2) analysed 72 hours post-treatment. Extracts were probed with anti-Rad18 or anti-PCNA antibodies. (B) Phase contrast microscopy images of gliospheres treated with control siRNA or Rad18-specific siRNA 72 hours post-treatment. (C) Quantification of gliospheres proliferation upon downregulation of Rad18 expression expressed as number of cells. Glioblastoma cancer stem cells extracts were treated as described in panel A and cells were counted before (0 h) or 72 hours post-treatment (72 h).
Glioblastoma cancer stem cells (Gliospheres, Gb4 and Gb7 cell lines) were isolated from patients as described in Clarion et al, 2014.
Cells were maintained in DMEM-F12 (Lonza, Levallois-Perret, France) supplemented with B27 and N2 (Invitrogen, LifeTechnologies, Saint Aubin, France), 25 ng/ml of FGF-2 and EGF (Peprotech, Neuilly sur Seine, France) at 37° C. in 5% CO2 humidified incubators.
Gb4 glioblastoma cancer stem cells extracts, treated with control siRNA or a Rad18-specific siRNA (SEQ ID NO:3) were analysed 72 hours post-treatment. […]

Data set [3] concerns U87 glioblastoma cell line. Put plainly: Cell viability of U87 cells transfected with Rad18 siRNA and challenged with cisplatin. The conditions noted are these: U87 cells co-transfected with siRNA and empty vector, increasing cisplatin, CellTiter-Glo; rescued by re-expression of Rad18. An excerpt: (E) Survival curves of U87 glioblastoma cells co-transfected with empty vector and non-specific siRNA (siLuc+EV), or Rad18-specific siRNA and empty vector (siRad18+EV) and rescued by co-transfection with Rad18 (siRad18+Rad18), challenged with the indicated doses of cisplatin (CisPt) normalized to non-treated cells (mock). Means and standard deviations are shown (n=3).
U87 cells were co-transfected either with siRNA Rad18 (GAG GAU UCU UCU AGC UGU A; SEQ ID NO:3) or siRNA Luciferase (Luc) as a control and an empty vector (pcDNA3) or Rad18 expressing vector using JETPrime reagent (Polyplus). Twenty-four hours after transfection, cells were trypsinized and seeded in 12 wells plates at a density of 10 000 cells/well. Twenty-four hours later cells were treated with increasing concentration of cisplatin (Sigma).
Cells were plated at 1×10^4 per well in twelve-well plates and UV-irradiated or exposed to the indicated amount of cisplatin (CisPt, Sigma). 48 hours after irradiation, cell viability was determined using the CellTiter-Glo® Luminescent Cell Viability assay (Promega).
Background: ATP-based viability assays read luminescence as a measure of living cells.

As for `CC(=O)c1cc([N+](=O)[O-])c(Sc2ccc(F)cc2F)s1` [P2207], the “sensitization of glioblastoma to cisplatin treatment (cell viability, % of DMSO control)” value in data set [1] is reported as “sensitizes glioblastoma to cisplatin treatment”.

With “GAG GAU UCU UCU AGC UGU A (GAGGAUUCUUCUAGCUGUA; listed as RNA, chemistry not given here) [Rad18-specific siRNA]”, the “proliferation of gliospheres (number of cells)” value in data set [2] is given as “affect the proliferation of gliospheres”. Moreover, in data set [3], the “sensitivity to cisplatin (cell viability)” value is on record as “strong sensitivity to cisplatin”.
